Assay in series [1]: not given
This is another data set of the same source.

Counter-ions that a name gives are not always drawn.

Turning to `C[Si]1(C)CCCCO1` [1,1 -Dimethyl-1-sila-2-oxacyclohexane], the flash point turned out to be 14.00 °C. On to `C[SiH](C)O[SiH](C)C` [1,1,3,3-Tetramethyldisiloxane], for which the flash point was -22.00 °C.

For `C=CC=CO[Si](C)(C)C` [1-(Trimethylsiloxy)-1,3-butadiene], the flash point stood at 25.00 °C. As for `C[Si](C)(C)O[Si](C)(C)O[Si](C)(C)O[Si](C)(C)Cl` [1-Chlorononamethyltetrasiloxane], the flash point was determined as 74.00 °C.

The compound `CCCCCC#C[Si](C)(C)C` [1-Heptynyltrimethylsilane] came in with a flash point of 42.00 °C. On the same count and under the same terms, the same measure for `C=C[Si]1(C)O[Si](C)(C=C)O[Si](C)(C=C)O[Si](C)(C=C)O1` (stereo unspecified) [2,4,6,8-Tetravinyl-2,4,6,8-tetramethylcyclotetrasiloxane]: 112.00 °C. Regarding `Oc1ccc(Cl)cc1Cl` [2,4-Dichlorophenol], the flash point in series [1] amounted to 114.00 °C. The same measure, in the same setting: the result for `CC=CC=CC=O` [2,4-Hexadienal] reads 68.00 °C. `C=C(CCl)C[Si](C)(C)C` [2-Chloromethyl-3-trimethylsilyl-1-propene] gave a flash point of 43.00 °C. In the case of `CCCCC(CC)CO` (stereo unspecified) [2-Ethyl hexanol], the flash point in series [1] came out at 84.00 °C. Still for that read-out and setting: the same measure for `OCCS` [2-Mercaptoethanol]: 74.00 °C; for `Cc1ccco1` [2-Methyl furan]: -30.00 °C; for `Cc1ccccn1` [2-Picoline]: 39.00 °C. Compound `C1=COCCC1` [3,4-Dihydro-2H-pyran] displayed a flash point in series [1] of -18.00 °C. Turning to `Cc1ccncc1` [4-Picoline], the flash point in series [1] was found to be 57.00 °C.

In the case of `CC(=O)Nc1ccccc1` [Acetanilide], in series [1], the flash point came to 174.00 °C. The same measure, in the same setting: the same measure for `CC(C)(O)C#N` [Acetone cyanohydrin]: 74.00 °C. The same measure, in the same setting: the same measure for `C=CC(=O)O` [Acrylic acid]: 52.00 °C. The same measure, in the same setting: the result for `N#Cc1ccccc1` [Benzonitrile] reads 85.00 °C. For the compound `O=C(Cl)c1ccccc1` [Benzoyl chloride], in series [1], the flash point worked out at 72.00 °C. On the same count and under the same terms, the result for `NCc1ccccc1` [Benzylamine] reads 63.00 °C; that for `c1ccc(-c2ccccc2)cc1` [Biphenyl], 113.00 °C. `Brc1ccccc1` [Bromobenzene] registered a flash point in series [1] of 51.00 °C. On the same count and under the same terms, the same measure for `CCCCS` [Butyl mercaptan]: 2.00 °C. Same read-out and setting: the result for `C=C(C)C(=O)OCCCC` [Butyl methacrylate] reads 52.00 °C; that for `CCCCCC(=O)O` [Caproic acid], 102.00 °C; that for `S=C=S` [Carbon disulphide], -30.00 °C. Take `O=CCCl` [Chloroacetaldehyde]: the flash point in series [1] was determined as 88.00 °C.

In the case of `Clc1cccc2ccccc12` [Chloronaphthalene], the flash point in series [1] was 132.00 °C.

`C/C=C/C=O` [Crotonaldehyde]: the flash point in series [1] was determined as 13.00 °C. Take `CC(C)c1ccccc1` [Cumene]: the flash point in series [1] turned out to be 44.00 °C. As for `O=C1CCCCC1` [Cyclohexanone], in series [1], the flash point worked out at 44.00 °C. Regarding `O=C1CCCC1` [Cyclopentanone], the flash point in series [1] came out at 26.00 °C.

Compound `CC(=O)CC(C)(C)O` [Diacetone alcohol] returned a flash point in series [1] of 64.00 °C.

In turn, `CCCCOC(=O)C(=O)OCCCC` [Dibutyl oxalate] had a flash point in series [1] of 104.00 °C. Regarding `CCCCOC(=O)c1ccccc1C(=O)OCCCC` [Dibutyl phthalate], the flash point in series [1] came to 157.00 °C.

Compound `CCCCOC(=O)C(O)C(O)C(=O)OCCCC` (stereo unspecified) [Dibutyl tartrate] displayed a flash point in series [1] of 91.00 °C. Same read-out and setting: the result for `O=C(Cl)C(Cl)Cl` [Dichloroacetyl chloride] reads 66.00 °C. The same measure, in the same setting: the result for `C1CCC(NC2CCCCC2)CC1` [Dicyclohexylamine] reads 99.00 °C; that for `NCCNCCN` [Diethylenetriamine], 102.00 °C. Still for that read-out and setting: the same measure for `CC(C)CC(O)CC(C)C` [Diisobutyl carbinol]: 74.00 °C; for `COC(C)(C)OC` [Dimethoxypropane]: -7.00 °C. In the case of `COC(=O)OC` [Dimethyl carbonate], the flash point in series [1] stood at 19.00 °C. Same read-out and setting: the same measure for `COC(=O)c1ccccc1C(=O)OC` [Dimethyl phthalate]: 146.00 °C; for `COC(C)COC(C)CO` (stereo unspecified) [Dipropylene glycol methyl ether]: 85.00 °C. On the same count and under the same terms, the same measure for `ClCC1CO1` (stereo unspecified) [Epichlorohydrin]: 41.00 °C; for `CCCC(=O)Nc1ccccc1` [Ethyl acetanilide]: 52.00 °C. Compound `CCOC(=O)CC(C)=O` [Ethyl acetoacetate] gave a flash point in series [1] of 84.00 °C. Still for that read-out and setting: the result for `CCCCCC(=O)CC` [Ethyl amyl ketone] reads 57.00 °C. `CCOC(=O)CCl` [Ethyl chloroacetate] displayed a flash point in series [1] of 66.00 °C. On to `C/C=C/C(=O)OCC` [Ethyl crotonate], for which the flash point in series [1] is 2.00 °C. On the same count and under the same terms, the same measure for `CCOC(=O)CC` [Ethyl propionate]: 12.00 °C; for `OCCCl` [Ethylene chlorohydrin]: 60.00 °C. In series [1], `NC=O` [Formamide] displayed a flash point of 155.00 °C. Regarding `O=Cc1ccco1` [Furfural], the flash point in series [1] is 60.00 °C. For the compound `OCC(O)CO` [Glycerol], the flash point in series [1] worked out at 160.00 °C. The same measure, in the same setting: the same measure for `CC(=O)CC(C)C` [Isobutyl methyl ketone]: 17.00 °C; for `C=CC(=C)C` [Isoprene]: -54.00 °C. On the same count and under the same terms, the same measure for `C=CC(=O)OC` [Methyl acrylate]: -3.00 °C; for `CCC(C)=O` [Methyl ethyl ketone]: -7.00 °C. `CC(=O)CC(C)C` [Methyl isobutyl ketone] came in with a flash point in series [1] of 23.00 °C. In turn, `COC(=O)C(C)C` [Methyl isobutyrate] gave a flash point in series [1] of 13.00 °C. The same measure, in the same setting: the same measure for `C=C(C)C(=O)OC` [Methyl methacrylate]: 10.00 °C; for `CCCC(C)=O` [Methyl-n-Propyl ketone]: 7.00 °C; for `CN(C)c1ccccc1` [N,N-Dimethylaniline ]: 63.00 °C. Still for that read-out and setting: the same measure for `c1ccc2ccccc2c1` [Naphthalene]: 79.00 °C; for `Oc1ccccc1` [Phenol]: 79.00 °C. On the same count and under the same terms, the result for `NCC(O)c1ccccc1` (stereo unspecified) [Phenylethanolamine] reads 152.00 °C; that for `NNc1ccccc1` [Phenylhydrazine], 89.00 °C. As for `CC(C)=CC(=O)C=C(C)C` [Phorone], in series [1], the flash point came to 85.00 °C. Same read-out and setting: the result for `C=CC=CC` [Piperylene] reads -43.00 °C; that for `CCCc1ccccc1` [Propyl benzene], 30.00 °C; that for `c1ccncc1` [Pyridine], 20.00 °C. Same read-out and setting: the result for `Oc1cccc(O)c1` [Resorcinol] reads 127.00 °C; that for `O=C(O)c1ccccc1O` [Salicylic acid], 157.00 °C; that for `NCCNCCNCCNCCN` [Tetraethylenepentamine], 163.00 °C. `c1ccc2c(c1)CCCC2` [Tetrahydronaphthalene] yielded a flash point in series [1] of 71.00 °C. On the same count and under the same terms, the result for `c1ccsc1` [Thiophene] reads -1.00 °C; that for `OCCN(CCO)CCO` [Triethanolamine], 179.00 °C; that for `CN(C)C` [Trimethyl amine], -7.00 °C.

In turn, `O=P(Oc1ccccc1)(Oc1ccccc1)Oc1ccccc1` [Triphenyl phosphate] yielded a flash point in series [1] of 220.00 °C. On the same count and under the same terms, the same measure for `c1ccc(P(c2ccccc2)c2ccccc2)cc1` [Triphenyl phosphine]: 180.00 °C; for `C=CCl` [Vinyl chloride]: -78.00 °C. On the same count and under the same terms, the result for `Cc1cccc(N)c1C` [Xylidine] reads 97.00 °C. On the same count and under the same terms, the result for `CC(C)CCO[N+](=O)[O-]` [iso-Amyl nitrate] reads 52.00 °C; that for `CC(=O)OCC(C)C` [iso-Butyl acetate], 18.00 °C. In series [1], `Cc1cccc([N+](=O)[O-])c1` [m-Nitrotoluene] returned a flash point of 106.00 °C. The compound `c1ccc(-c2cccc(-c3ccccc3)c2)cc1` [m-Terphenyl] returned a flash point in series [1] of 135.00 °C. On the same count and under the same terms, the same measure for `Cc1cccc(N)c1` [m-Toluidine]: 86.00 °C; for `Cc1cccc(C)c1` [m-Xylene]: 29.00 °C; for `CCCCCCCN` [n-Heptylamine]: 54.00 °C. Same read-out and setting: the result for `CCCOC(C)=O` [n-Propyl acetate] reads 14.00 °C; that for `COc1ccccc1C=O` [o-Anisaldehyde], 118.00 °C.

In series [1], `Cc1ccccc1Br` [o-Bromotoluene] came in with a flash point of 79.00 °C.

Regarding `Oc1ccccc1Cl` [o-Chlorophenol], the flash point in series [1] came out at 64.00 °C. The same measure, in the same setting: the same measure for `Nc1ccccc1[N+](=O)[O-]` [o-Nitroaniline]: 168.00 °C. In series [1], `Cc1ccccc1[N+](=O)[O-]` [o-Nitrotoluene] returned a flash point of 106.00 °C.

Compound `c1ccc(-c2ccccc2-c2ccccc2)cc1` [o-Terphenyl] came in with a flash point in series [1] of 163.00 °C. Same read-out and setting: the same measure for `Cc1ccccc1N` [o-Toluidine]: 85.00 °C. Same read-out and setting: the result for `Cc1ccc(O)cc1` [p-Cresol] reads 94.00 °C; that for `Nc1ccc([N+](=O)[O-])cc1` [p-Nitroaniline], 199.00 °C; that for `Cc1ccc(N)cc1` [p-Toluidine], 87.00 °C. As to `Cc1ccc(C)cc1` [p-Xylene], in series [1], the flash point is 27.00 °C.

For the compound `CCCC(C)OC(C)=O` (stereo unspecified) [sec-Amyl acetate], in series [1], the flash point was determined as 32.00 °C. In series [1], `CCCCC(C)OC(C)=O` (stereo unspecified) [sec-Hexyl acetate] yielded a flash point of 45.00 °C. Still for that read-out and setting: the same measure for `CC(C)(C)O` [tert-Butyl alcohol]: 10.00 °C.

Source of the values: a flash point compilation (Sun et al. 2020).
